Measurements taken from article PMC3853768 (Molecular Pain, 2013).
“Also recorded” adds a separate entry of the source. Positions of bridges follow the written chain, without caps; N, C: chain ends. Residues, ends and D or L forms follow the SMILES beside them.

Tests used:
[1] = target: T1, N-type calcium currents (Cav2.2), mouse DRG neurons (Mus musculus, UniProt O55017); type: cell-based
naïve mice (C57Bl/6j) [2] = settings: mouse, in vivo, sc, 2 mg/kg
rat = settings: in vivo, iv; cited from earlier work
[3] = test system: CFA-injected mice (C57 Bl6); settings: mouse, in vivo
naïve mice (C57Bl/6j) [4] = settings: mouse, in vivo, sc, 2 mg/kg; remark: listed apart in the source
[5] = test system: N-type VGCCs over the P/Q-type (Cav2.1); settings: cited from earlier work
mice (C57 Bl6) = settings: mouse, in vivo, sc
[6] = test system: CFA-injected mice (C57 Bl6); settings: mouse, in vivo; remark: listed apart in the source
[7] = target: T1, N-type calcium currents (Cav2.2), mouse DRG neurons; type: cell-based; remark: listed apart in the source
Cav2.2 channel = settings: cited from earlier work
[8] = test system: excitatory monosynaptic transmission in the dorsal horn of the spinal cord; settings: cited from earlier work
[9] = test system: N-type calcium channels with auxiliary subunits; settings: cited from earlier work

T1 sequence (O55017 whole entry): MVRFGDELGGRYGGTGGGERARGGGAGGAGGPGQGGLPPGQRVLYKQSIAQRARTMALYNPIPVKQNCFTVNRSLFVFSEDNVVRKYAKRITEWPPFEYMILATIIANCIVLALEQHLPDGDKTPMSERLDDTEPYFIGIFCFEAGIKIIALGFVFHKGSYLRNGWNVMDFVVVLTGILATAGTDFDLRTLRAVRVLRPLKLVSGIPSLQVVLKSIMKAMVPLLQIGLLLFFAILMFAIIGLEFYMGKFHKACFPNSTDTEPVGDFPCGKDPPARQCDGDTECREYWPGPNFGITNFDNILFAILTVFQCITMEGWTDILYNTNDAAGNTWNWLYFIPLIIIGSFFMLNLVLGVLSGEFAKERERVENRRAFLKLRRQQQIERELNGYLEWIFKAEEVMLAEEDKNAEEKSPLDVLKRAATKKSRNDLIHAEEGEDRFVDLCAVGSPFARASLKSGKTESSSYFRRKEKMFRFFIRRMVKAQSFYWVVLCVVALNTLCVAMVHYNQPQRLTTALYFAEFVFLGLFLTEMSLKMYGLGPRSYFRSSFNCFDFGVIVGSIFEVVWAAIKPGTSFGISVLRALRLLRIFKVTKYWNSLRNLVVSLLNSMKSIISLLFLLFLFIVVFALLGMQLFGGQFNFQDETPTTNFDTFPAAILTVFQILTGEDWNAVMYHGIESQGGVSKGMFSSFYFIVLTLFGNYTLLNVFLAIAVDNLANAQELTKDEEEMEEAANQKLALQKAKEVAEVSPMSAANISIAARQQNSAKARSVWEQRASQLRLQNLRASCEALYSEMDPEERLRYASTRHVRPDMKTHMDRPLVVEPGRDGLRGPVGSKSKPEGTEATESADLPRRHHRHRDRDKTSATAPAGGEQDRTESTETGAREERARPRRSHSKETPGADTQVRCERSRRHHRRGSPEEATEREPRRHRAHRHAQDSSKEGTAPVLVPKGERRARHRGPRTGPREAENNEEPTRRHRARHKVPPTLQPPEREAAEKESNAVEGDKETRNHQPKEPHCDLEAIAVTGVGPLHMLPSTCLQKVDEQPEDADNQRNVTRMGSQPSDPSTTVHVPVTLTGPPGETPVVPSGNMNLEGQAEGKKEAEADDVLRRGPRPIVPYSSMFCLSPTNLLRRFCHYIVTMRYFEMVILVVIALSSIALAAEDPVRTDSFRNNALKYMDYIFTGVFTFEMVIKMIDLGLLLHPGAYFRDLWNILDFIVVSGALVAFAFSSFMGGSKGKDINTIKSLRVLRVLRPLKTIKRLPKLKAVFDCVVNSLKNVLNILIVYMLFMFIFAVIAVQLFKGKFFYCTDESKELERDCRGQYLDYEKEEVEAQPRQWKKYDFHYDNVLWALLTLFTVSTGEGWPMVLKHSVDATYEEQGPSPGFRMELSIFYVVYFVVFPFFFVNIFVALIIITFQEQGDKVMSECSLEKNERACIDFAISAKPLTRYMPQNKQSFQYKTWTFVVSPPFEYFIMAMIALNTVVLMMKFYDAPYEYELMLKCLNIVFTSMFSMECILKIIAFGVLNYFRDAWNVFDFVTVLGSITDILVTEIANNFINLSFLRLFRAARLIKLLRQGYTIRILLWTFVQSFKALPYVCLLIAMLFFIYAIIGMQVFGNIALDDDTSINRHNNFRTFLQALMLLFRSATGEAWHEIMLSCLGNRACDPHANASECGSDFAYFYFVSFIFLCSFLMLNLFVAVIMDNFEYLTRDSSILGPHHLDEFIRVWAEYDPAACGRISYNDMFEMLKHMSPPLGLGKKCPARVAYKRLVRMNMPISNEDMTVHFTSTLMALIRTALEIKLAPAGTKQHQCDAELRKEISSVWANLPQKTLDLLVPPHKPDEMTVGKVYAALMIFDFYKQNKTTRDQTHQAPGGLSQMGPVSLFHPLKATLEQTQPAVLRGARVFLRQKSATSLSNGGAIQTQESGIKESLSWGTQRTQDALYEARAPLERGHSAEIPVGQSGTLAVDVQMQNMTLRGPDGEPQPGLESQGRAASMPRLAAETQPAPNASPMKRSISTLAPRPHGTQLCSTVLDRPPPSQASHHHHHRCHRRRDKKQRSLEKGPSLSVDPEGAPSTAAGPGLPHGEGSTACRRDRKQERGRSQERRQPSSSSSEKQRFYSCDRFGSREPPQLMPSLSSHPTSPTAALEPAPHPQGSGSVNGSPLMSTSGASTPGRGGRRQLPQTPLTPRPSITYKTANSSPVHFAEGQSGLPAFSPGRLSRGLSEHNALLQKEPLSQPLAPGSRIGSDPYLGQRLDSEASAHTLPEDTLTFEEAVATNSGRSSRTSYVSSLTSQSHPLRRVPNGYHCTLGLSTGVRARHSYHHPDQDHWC

| SMILES | rank order of potency to inhibit N-type calcium currents [1] | Rotarod performance, End rate (naïve mice (C57Bl/6j) [2]) | Rotarod performance, Time to fall (naïve mice (C57Bl/6j) [2]) | ceiling effect [3] | Grip strength, Peak tension (naïve mice (C57Bl/6j) [4]) | Grip strength, Tension/weight (naïve mice (C57Bl/6j) [4]) | side-effects after systemic administration (mice (C57 Bl6)) | recovery from block, 30 min [7] | reversibility of ICa block [7] | maximal inhibition relative to CVID [1] | inhibition of excitatory monosynaptic transmission [8] | recovery from block in presence of β2a compared to β3 subunits [9] | inhibition of Cav2.2 channel currents (Cav2.2 channel) | further results |
| --- | --- | --- | --- | --- | --- | --- | --- | --- | --- | --- | --- | --- | --- | --- |
| CSCC[C@@H]1NC(=O)[C@H](CC(C)C)NC(=O)[C@H](CCCCN)NC(=O)[C@H](CO)NC(=O)[C@@H]2CSSC[C@@H]3NC(=O)[C@H](CO)NC(=O)CNC(=O)[C@H](CO)NC(=O)[C@H](CSSC[C@H](N)C(=O)N[C@@H](CCCCN)C(=O)N[C@@H](CO)C(=O)N[C@@H](CCCCN)C(=O)NCC(=O)N[C@@H](C)C(=O)N[C@@H](CCCCN)C(=O)N2)NC(=O)[C@H](CSSC[C@@H](C(N)=O)NC(=O)[C@H](CCCNC(=N)N)NC(=O)CNC(=O)[C@H](C(C)C)NC(=O)[C@H]([C@@H](C)O)NC(=O)CNC(=O)[C@H](CO)NC3=O)NC(=O)[C@H](CC(=O)O)NC(=O)[C@H](Cc2ccc(O)cc2)NC1=O [CVID] (H-CKSKGAKCSKLMYDCCSGSCSGTVGRC-NH2; disulfide 1-16, 8-20, 15-27) | least potent | 18 ± 1.4 rpm | 40 ± 4.1 s | reaching a ceiling effect | 121 ± 5.7 g | 5.7 ± 0.3 | not accompanied by side-effects such as motor deficits or sedation | no recovery was observed | completely irreversible; also recorded: no recovery was observed |  |  |  |  | Log [IC50] [1]: -7.12 ± 0.04; Maximal Inhibition of ICa [1]: 52 ± 2 % of total; block of high-voltage activated ICa [1]: block of high-voltage activated ICa; inhibition of total ICa (Figure 1B) [1]: about 40%; antihyperalgesic effects (rat): dose-dependent antihyperalgesic effects; cardiovascular side effects (rat): without serious cardiovascular side effects; effect on automated von Frey and incapacitance measures: incapacitance [3]: both measures appeared to be sensitive to subcutaneous injection of CVID; also recorded: partially reversed; reversal of incapacitance at peak time of action (2 h) [3]: significant reversal; dose at which response reaches a ceiling ([3]; sc): 0.2 mg/kg; peak time of action ([3]; sc): 2 h; selectivity for N-type VGCCs over P/Q-type [5]: higher selectivity for N-type VGCCs over the P/Q-type (Cav2.1); selectivity for N-type calcium channels [5]: high selectivity for N-type calcium channels; effect on automated von Frey measure [6]: both measures appeared to be sensitive to subcutaneous injection of CVID; also recorded: partially reversed; Recovery from block [7]: -1 ± 5 % of inhibition; reversibility of inhibition (Cav2.2 channel): irreversible inhibition |
| C[C@@H]1NC(=O)CNC(=O)[C@H](CCCCN)NC(=O)CNC(=O)[C@H](CCCCN)NC(=O)[C@@H](N)CSSC[C@@H]2NC(=O)[C@@H]3CSSC[C@@H](C(N)=O)NC(=O)[C@H](CCCNC(=N)N)NC(=O)CNC(=O)[C@H](CO)NC(=O)[C@H](CCCNC(=N)N)NC(=O)[C@H](CSSC[C@H](NC(=O)[C@H](CO)NC1=O)C(=O)N[C@@H](CCCNC(=N)N)C(=O)N[C@@H](CCCNC(=N)N)C(=O)N[C@@H]([C@@H](C)O)C(=O)N[C@@H](CO)C(=O)N[C@@H](Cc1ccc(O)cc1)C(=O)N[C@@H](CC(=O)O)C(=O)N3)NC(=O)[C@H](CO)NC(=O)CNC(=O)[C@H]([C@@H](C)O)NC2=O [CVIE] | most potent | 17 ± 1.4 rpm | 36 ± 4.1 s | not seen with CVIE; also recorded: did not appear to reach a ceiling at the highest dose tested | 121 ± 6.9 g | 5.5 ± 0.3 | not accompanied by side-effects such as motor deficits or sedation | no recovery was observed | completely irreversible; also recorded: no recovery was observed | very similar to that of CVID | reversibly inhibited | much greater | potently and reversibly inhibited | potency at ICa inhibition compared to CVID [1]: more than ten-fold compared to CVID; overall significance of AUC data, doses ([3]; sc): 2.0 mg/kg; potency versus CVID (AUC) ([3]; sc): not CVID at any dose; reversal of incapacitance relative to another peptide (CVIE vs CVID) ([3]; sc): did not reveal any significant differences; also recorded: not significantly greater than CVID |
| CC(C)C[C@@H]1NC(=O)[C@H](CCCNC(=N)N)NC(=O)[C@@H]2CSSC[C@@H]3NC(=O)[C@H](CO)NC(=O)[C@H](C)NC(=O)CNC(=O)[C@H](CCCCN)NC(=O)CNC(=O)[C@H](CCCCN)NC(=O)[C@@H](N)CSSC[C@H](NC(=O)[C@H](CSSC[C@@H](C(N)=O)NC(=O)[C@H](CCCNC(=N)N)NC(=O)CNC1=O)NC(=O)[C@H](CC(=O)O)NC(=O)[C@H](Cc1ccc(O)cc1)NC(=O)[C@H](CO)NC(=O)[C@H]([C@@H](C)O)NC(=O)[C@H](CCCNC(=N)N)NC(=O)[C@H](CCCNC(=N)N)NC3=O)C(=O)N[C@@H]([C@@H](C)O)C(=O)NCC(=O)N[C@@H](CO)C(=O)N2 [CVIF] (H-CKGKGASCRRTSYDCCTGSCRLGRC-NH2; disulfide 1-16, 8-20, 15-25) |  | 17 ± 1.0 rpm | 36 ± 3.0 s |  | 121 ± 7.7 g | 5.4 ± 0.4 |  |  | partially reversible; also recorded: Partial recovery | very similar to that of CVID | reversibly inhibited | much greater | potently and reversibly inhibited |  |
